Inhibition data for 7 molecules are collected here from patent US8927571B2, “Pyrido[4,3-B]indoles and methods of use” (Medivation Technologies, Inc., priority 2009, dated 2015).

Molecules are shown by their SMILES.

In general, inhibition refers to the change of the read-out against control, counted positive when it falls.

The target in experiment [1] is T1, human recombinant adrenergic α2B receptor (Homo sapiens, UniProt P18089).
T1 construct: expressed in transfected cells; host or cells: Chinese hamster ovary (CHO-K1) cells
T1 sequence (P18089 1-450): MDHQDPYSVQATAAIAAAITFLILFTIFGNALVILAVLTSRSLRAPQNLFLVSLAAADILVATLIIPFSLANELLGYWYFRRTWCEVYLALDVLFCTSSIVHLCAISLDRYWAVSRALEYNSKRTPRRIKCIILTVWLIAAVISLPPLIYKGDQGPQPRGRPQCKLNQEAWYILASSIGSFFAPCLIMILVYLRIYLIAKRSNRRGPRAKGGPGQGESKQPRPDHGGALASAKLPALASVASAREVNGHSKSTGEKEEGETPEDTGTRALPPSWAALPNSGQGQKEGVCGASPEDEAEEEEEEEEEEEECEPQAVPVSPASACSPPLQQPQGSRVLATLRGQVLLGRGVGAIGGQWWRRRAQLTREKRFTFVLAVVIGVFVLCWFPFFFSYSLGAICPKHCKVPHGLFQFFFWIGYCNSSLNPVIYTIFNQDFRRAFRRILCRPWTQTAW
The experiment in a line: Adrenergic α2B radioligand binding assay ([3H]Rauwolscine). The note with it: 2.5 nM [3H]Rauwolscine, read-out: Percent Inhibition of ligand binding, Adrenergic (1 μM) α2B. How it is done:
To evaluate in radioligand binding assays the activity of compounds of the invention, human recombinant adrenergic α2B receptor expressed in Chinese hamster ovary (CHO-K1) cells (Uhlen S et al. Eur. J. Pharmacol. 343(1):93, 1998) in a modified Tris-HCl buffer (50 mM Tris-HCl, pH 7.4, 12.5 mM MgCl2, 1 mM EDTA, 0.2% BSA) was used. Compounds of the invention were incubated with 2.5 nM [^3H]Rauwolscine for 60 min at 25° C. Non-specific binding was estimated in the presence of 10 μM Prozosin. Receptor proteins were filtered and washed, the filters were then counted to determine [^3H]Rauwolscine specifically bound. Compounds were screened at 1 μM or lower, using 1% DMSO as vehicle. Biochemical assay results are presented as the percent inhibition of specific binding in Table 3.

The target of experiment [2] is T2, human recombinant adrenergic α2A receptor (Homo sapiens, UniProt P08913).
T2 construct: expressed in transfected cells; host or cells: insect Sf9 cells
T2 sequence (P08913 1-465): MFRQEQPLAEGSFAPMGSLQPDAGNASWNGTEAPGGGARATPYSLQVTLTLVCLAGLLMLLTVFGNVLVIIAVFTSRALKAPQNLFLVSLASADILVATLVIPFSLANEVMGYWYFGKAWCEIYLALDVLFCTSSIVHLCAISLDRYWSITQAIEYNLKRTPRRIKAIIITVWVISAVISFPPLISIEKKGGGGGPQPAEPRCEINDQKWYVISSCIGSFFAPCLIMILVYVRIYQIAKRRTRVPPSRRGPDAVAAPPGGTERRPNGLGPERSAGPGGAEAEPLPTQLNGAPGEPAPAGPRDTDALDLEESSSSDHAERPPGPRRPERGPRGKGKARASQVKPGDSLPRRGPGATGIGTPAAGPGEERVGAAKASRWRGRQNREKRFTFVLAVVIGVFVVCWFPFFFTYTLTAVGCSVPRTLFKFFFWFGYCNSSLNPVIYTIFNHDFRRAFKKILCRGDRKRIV
The experiment in a line: Adrenergic α2A radioligand binding assay ([3H]MK-912). As to conditions: 1 nM [3H]MK-912, read-out: Percent Inhibition of ligand binding, Adrenergic (1 μM) α2A. Here is the method:
To evaluate in radioligand binding assays the activity of compounds of the invention, human recombinant adrenergic α2A receptor expressed in insect Sf9 cells (Uhlen S et al. J. Pharmacol. Exp. Ther. 271:1558, 1994) in a modified Tris-HCl buffer (50 mM Tris-HCl, pH 7.4, 12.5 mM MgCl2, 2 mM EDTA) was used. Compounds of invention were incubated with 1 nM [^3H]MK-912 for 60 min at 25° C. MK912 is (2S-trans)-1,3,4,5′,6,6′,7,12b-octahydro-1′,3′-dimethyl-spiro[2H-benzofuro[2,3-a]quinolizine-2,4′(1′H)-pyrimidin]-2′(3′H)-one hydrochloride Non-specific binding was estimated in the presence of 10 μM WB-4101 (2-(2,6-dimethoxyphenoxyethyl) aminomethyl-1,4-benzodioxane hydrochloride). Receptor proteins were filtered and washed, the filters were then counted to determine [^3H]MK-912 specifically bound. Compounds were screened at 1 μM or lower, using 1% DMSO as vehicle. Biochemical assay results are presented as the percent inhibition of specific binding in Table 3.

The target in experiment [3] is human recombinant serotonin (5-Hydroxytryptamine) 5-HT7 receptor (Homo sapiens, UniProt P34969). The experiment in a line: Serotonin 5-HT7 radioligand binding assay ([3H]LSD). As to conditions: 5.5 nM [3H]LSD, read-out: Percent Inhibition of ligand binding, Serotonin (1 μM) 5-HT7. How it is done: Compounds of invention were incubated with 5.5 nM [^3H] Lysergic acid diethylamide (LSD) for 2 h at 25° C. […] Receptor proteins were filtered and washed, the filters were then counted to determine [^3H]LSD specifically bound. Compounds were screened at 1 μM or lower, using 1% DMSO as vehicle. Biochemical assay results are presented as the percent inhibition of specific binding in Table 4.

The target of experiment [4] is T3, human recombinant serotonin (5-Hydroxytryptamine) 5-HT2C receptor (Homo sapiens, UniProt P28335).
T3 construct: expressed in transfected cells; host or cells: Chinese hamster ovary (CHO-K1) cells
T3 sequence (P28335 33-458): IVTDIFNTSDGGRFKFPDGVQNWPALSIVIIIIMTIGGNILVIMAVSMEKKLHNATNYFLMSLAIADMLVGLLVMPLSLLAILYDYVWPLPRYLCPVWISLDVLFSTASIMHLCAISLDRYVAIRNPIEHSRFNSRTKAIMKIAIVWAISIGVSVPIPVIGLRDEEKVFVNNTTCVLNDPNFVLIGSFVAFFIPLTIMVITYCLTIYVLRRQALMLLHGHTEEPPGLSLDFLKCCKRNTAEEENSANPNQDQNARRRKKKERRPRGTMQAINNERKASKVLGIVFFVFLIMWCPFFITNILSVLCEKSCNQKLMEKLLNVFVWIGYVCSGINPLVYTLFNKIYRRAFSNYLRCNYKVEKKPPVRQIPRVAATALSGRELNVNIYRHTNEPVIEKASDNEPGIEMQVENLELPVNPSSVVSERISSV
Description: Serotonin 5-HT2C radioligand binding assay ([3H]Mesulergine). The note with it: 1 nM [3H]Mesulergine, read-out: Percent Inhibition of ligand binding, Serotonin (1 μM) 5-HT2C. How it is done:
Compounds of the invention were incubated with 1 nM [^3H]Mesulergine for 60 min at 25° C. Non-specific binding was estimated in the presence of 1 μM Mianserin. Receptor proteins were filtered and washed, the filters were then counted to determine [^3H]Mesulergine specifically bound. Compounds were screened at 1 μM or lower, using 1% DMSO as vehicle. Biochemical assay results are presented as the percent inhibition of specific binding in Table 4.

human recombinant serotonin (5-Hydroxytryptamine) 5-HT7 receptor, sequence (P34969 whole entry): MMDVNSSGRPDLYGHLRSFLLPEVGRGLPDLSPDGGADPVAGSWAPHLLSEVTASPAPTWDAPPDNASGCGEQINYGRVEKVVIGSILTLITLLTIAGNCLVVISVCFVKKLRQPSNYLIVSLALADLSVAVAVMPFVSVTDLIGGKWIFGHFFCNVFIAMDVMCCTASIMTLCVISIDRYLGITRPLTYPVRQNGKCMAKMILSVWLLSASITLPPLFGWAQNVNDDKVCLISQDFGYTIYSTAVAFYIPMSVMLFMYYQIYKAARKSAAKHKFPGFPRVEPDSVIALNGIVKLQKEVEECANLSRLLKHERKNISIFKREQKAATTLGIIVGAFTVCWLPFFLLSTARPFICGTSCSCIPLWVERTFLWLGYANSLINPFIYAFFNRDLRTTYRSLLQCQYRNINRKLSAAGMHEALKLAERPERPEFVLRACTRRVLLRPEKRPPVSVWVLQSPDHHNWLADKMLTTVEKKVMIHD

Consider `Cc1ccc2c(c1)c1c(n2CC(CC(=O)O)c2ccc(F)cc2)CCN(C)C1` (stereo not drawn) [Compound 7, 4-(2,8-dimethyl-3,4-dihydro-1H-pyrido[4,3-b]indol-5(2H)-yl)-3-(4-fluorophenyl)butanoic acid], for which the inhibition at 1 µM turned out to be 12% in experiment [1], 9% in experiment [2], 5% in experiment [3] and 14% in experiment [4].

As to `Cc1ccc2c(c1)c1c(n2CC2(c3ccc(F)cc3)OCCO2)CCN(C)C1` [Compound 3, 5-((2-(4-fluorophenyl)-1,3-dioxolan-2-yl)methyl)-2,8-dimethyl-2,3,4,5-tetrahydro-1H-pyrido[4,3-b]indole], the inhibition at 1 µM came to 106% in experiment [1], 92% in experiment [2], 99% in experiment [3] and 93% in experiment [4].

On to `CN1CCc2c(c3cc(Cl)ccc3n2CC2(c3ccc(F)cc3)OCCO2)C1` [Compound 4, 8-chloro-5-((2-(4-fluorophenyl)-1,3-dioxolan-2-yl)methyl)-2-methyl-2,3,4,5-tetrahydro-1H-pyrido[4,3-b]indole], for which the inhibition at 1 µM was found to be 103% in experiment [1], 95% in experiment [2], 93% in experiment [3] and 101% in experiment [4].

`CNC(=O)CC(Cn1c2c(c3cc(C)ccc31)CN(C)CC2)c1ccc(F)cc1` (stereo not drawn) [Compound 8, 4-(2,8-dimethyl-3,4-dihydro-1H-pyrido[4,3-b]indol-5(2H)-yl)-3-(4-fluorophenyl)-N-methylbutanamide]: the inhibition at 1 µM in experiment [1] stood at 72%; in experiment [2], 63%; in experiment [3] it was 74%; in experiment [4], 95%.

Regarding `CN1CCc2c(c3cc(Cl)ccc3n2CC2(c3ccc(Cl)cc3)OCCO2)C1` [Compound 5, 8-chloro-5-((2-(4-chlorophenyl)-1,3-dioxolan-2-yl)methyl)-2-methyl-2,3,4,5-tetrahydro-1H-pyrido[4,3-b]indole], the inhibition at 1 µM stood at 97% in experiment [1], 95% in experiment [2], 89% in experiment [3] and 100% in experiment [4].

On to `CCOC(=O)CC(Cn1c2c(c3cc(C)ccc31)CN(C)CC2)c1ccc(F)cc1` (stereo not drawn) [Compound 6, ethyl 4-(2,8-dimethyl-3,4-dihydro-1H-pyrido[4,3-b]indol-5(2H)-yl)-3-(4-fluorophenyl)butanoate], for which the inhibition at 1 µM in experiment [1] worked out at 95%; in experiment [2], 95%; in experiment [3], 93%; in experiment [4], 93%.

Take `Cc1ccc2c(c1)c1c(n2CC2(c3ccccc3)OCCO2)CCN(C)C1` [Compound 2, 2,8-dimethyl-5-((2-phenyl-1,3-dioxolan-2-yl)methyl)-2,3,4,5-tetrahydro-1H-pyrido[4,3-b]indole]: the inhibition at 1 µM in experiment [1] amounted to 103%; in experiment [2], 91%; in experiment [4], 96%.
